From US9802937B2, “Substituted pyrazolo{4,3-D}pyrimidines as kinase inhibitors” (ORIGENIS GMBH, priority 2011, dated 2017)

Biological target: T1, SYK kinase (Homo sapiens, UniProt P43405)
T1 construct: purchased Invitrogen, Carlsbad
Assay: SYK Assay (OMNIA KINASE ASSAY, SOX peptide fluorescence)
Type: biochemical
Settings: apparent Ki calculated from the IC50 using the Cheng-Prusoff equation; 1 mM ATP, 30° C.; read-out: SYK Activities: Ki
Experimental: In the assay OMNIA® KINASE ASSAY by Invitrogen Corporation (Carlsbad) the effect of invention of a compound on the phosphorylation is determined by measurement of fluorescence intensity of a chelation-enhanced fluorophore called SOX. Upon phosphorylation of the peptide by the kinase of interest, Mg2+ is chelated to form a bridge between the SOX moiety and the phosphate group that is transferred to the specific tyrosine on the peptide. The fluorescence intensity is directly proportional to the amount of peptide phosphorylation.
To the wells of an 384 well small volume plate (Greiner, Frickenhausen) are added (i) the compound under test in 5% DMSO/distilled water (2 μl), (ii) 16 μl of the master mix containing ATP, DTT, Kinase Reaction Buffer, Omina Peptide Substrate Tyr 7 resulting in a final concentration of 1 mM ATP, 0.2 mM DTT and 10 μM Peptide Substrate.
The Master Mix and the assay plate was incubated to reaction temperature before the measurement (30° C.). The reaction was started with addition of (iii) 2 μl 4 μg/ml SYK kinase (Invitrogen, Carlsbad). During measurement fluorescence intensitiy readings were collected using a TECAN M1000 at a wavelength of λex 360/λem 485 nm every 30 s for 30 minutes. The reaction velocity was plotted versus the inhibitor concentration to determine the […] using XLFit 5.0 (IDBS, Guildford) to fit to a sigmoidal dose response curve, and the apparent Ki values were calculated from the IC50 using the Cheng-Prusoff equation (Cheng, Y.; Prusoff, W. H. Biochem. Pharmacol. 22, 3099-3108, 1973).

COc1ccc(Nc2nc(-c3nc4ccccc4[nH]3)nc3cn[nH]c23)cc1OC [Example #129, 5-(1H-benzo[d]imidazol-2-yl)-N-(3,4-dimethoxyphenyl)-1H-pyrazolo[4,3-d]pyrimidin-7-amine]
Ki: 10 to 100 nM

COc1ccc(Nc2nc(-c3nc4ccccc4n3C)nc3cn[nH]c23)cc1OC [Example #130, N-(3,4-dimethoxyphenyl)-5-(1-methyl-1H-benzo[d]imidazol-2-yl)-1H-pyrazolo[4,3-d]pyrimidin-7-amine]
Ki: 100 to 1000 nM

Cc1cccc(NC(=O)Nc2ccc(Nc3nc(-c4ccsc4)nc4cn[nH]c34)cc2)c1 [Example #133, 1-(4-((5-(thiophen-3-yl)-1H-pyrazolo[4,3-d]pyrimidin-7-yl)amino)phenyl)-3-(m-tolyl)urea]
Ki: 100 to 1000 nM

CN1CCN(c2ccc(Nc3nc(-c4ncc[nH]4)nc4cn[nH]c34)cc2)CC1 [Example #141, 5-(1H-imidazol-2-yl)-N-(4-(4-methylpiperazin-1-yl)phenyl)-1H-pyrazolo[4,3-d]pyrimidin-7-amine]
Ki: 10 to 100 nM

CC1(C)CNc2cc(Nc3nc(-c4ccsc4)nc4cn[nH]c34)ccc2S1 [Example #148, 2,2-dimethyl-N-(5-(thiophen-3-yl)-1H-pyrazolo[4,3-d]pyrimidin-7-yl)-3,4-dihydro-2H-benzo[b][1,4]thiazin-6-amine]
Ki: 100 to 1000 nM

CN1CCN(c2ccc(Nc3nc(-c4cccc(-c5nn[nH]n5)c4)nc4cn[nH]c34)cc2)CC1 [Example #149, 5-(3-(2H-tetrazol-5-yl)phenyl)-N-(4-(4-methylpiperazin-1-yl)phenyl)-1H-pyrazolo[4,3-d]pyrimidin-7-amine]
Ki: < 10 nM

CN(C)CCNc1nc(C(=O)c2ccccc2)nc2cn[nH]c12 [Example #150, (7-((2-(dimethylamino)ethyl)amino)-1H-pyrazolo[4,3-d]pyrimidin-5-yl)(phenyl)methanone]
Ki: 100 to 1000 nM

CN1CCC(CNc2nc(C(=O)c3ccccc3)nc3cn[nH]c23)CC1 [Example #151, (7-(((1-methylpiperidin-4-yl)methyl)amino)-1H-pyrazolo[4,3-d]pyrimidin-5-yl)(phenyl)methanone]
Ki: < 10 nM

CN1CCN(c2ccc(Nc3nc(C(=O)c4ccccc4)nc4cn[nH]c34)cc2)CC1 [Example #152, (7-((4-(4-methylpiperazin-1-yl)phenyl)amino)-1H-pyrazolo[4,3-d]pyrimidin-5-yl)(phenyl)methanone]
Ki: 10 to 100 nM

COc1ccc(Nc2nc(C(=O)c3ccccc3)nc3cn[nH]c23)cc1OC [Example #153, (7-((3,4-dimethoxyphenyl)amino)-1H-pyrazolo[4,3-d]pyrimidin-5-yl)(phenyl)methanone]
Ki: 100 to 1000 nM

O=C1CSc2ccc(Nc3nc(-c4cccs4)nc4cn[nH]c34)cc2N1 [Example #165, 6-((5-(thiophen-2-yl)-1H-pyrazolo[4,3-d]pyrimidin-7-yl)amino)-2H-benzo[b][1,4]thiazin-3(4H)-one]
Ki: 10 to 100 nM

CC(C)(C#N)c1ccc(Nc2nc(-c3cccs3)nc3cn[nH]c23)cc1 [Example #167, 2-methyl-2-(4-((5-(thiophen-2-yl)-1H-pyrazolo[4,3-d]pyrimidin-7-yl)amino)phenyl)propanenitrile]
Ki: 10 to 100 nM

COc1ccc(-c2nc(Nc3ccc(N4CCSCC4)cc3)c3[nH]ncc3n2)cc1 [Example #168, 5-(4-methoxyphenyl)-N-(4-thiomorpholinophenyl)-1H-pyrazolo[4,3-d]pyrimidin-7-amine]
Ki: 10 to 100 nM

CN1CCN(c2ccc(Nc3nc(-c4cccc(OCC(=O)O)c4)nc4cn[nH]c34)cc2)CC1 [Example #174, 2-(3-(7-((4-(4-methylpiperazin-1-yl)phenyl)amino)-1H-pyrazolo[4,3-d]pyrimidin-5-yl)phenoxy)acetic acid]
Ki: 100 to 1000 nM

CN1CCN(c2ccc(Nc3nc(-c4cccc(CC(=O)O)c4)nc4cn[nH]c34)cc2)CC1 [Example #176, 2-(3-(7-((4-(4-methylpiperazin-1-yl)phenyl)amino)-1H-pyrazolo[4,3-d]pyrimidin-5-yl)phenyl)acetic acid]
Ki: 10 to 100 nM

CN1CCN(c2ccc(Nc3nc(-c4cccc(C(=O)O)n4)nc4cn[nH]c34)cc2)CC1 [Example #177, 6-(7-((4-(4-methylpiperazin-1-yl)phenyl)amino)-1H-pyrazolo[4,3-d]pyrimidin-5-yl)picolinic acid]
Ki: 10 to 100 nM

FS(F)(F)(F)(F)c1ccc(Nc2nc(-c3ccsc3)nc3cn[nH]c23)cc1 [Example #178, N-(4-(pentafluorosulfanyl)phenyl)-5-(thiophen-3-yl)-1H-pyrazolo[4,3-d]pyrimidin-7-amine]
Ki: 100 to 1000 nM

Cc1ccc(CNCc2cccc(-c3nc(Nc4ccc(N5CCN(C)CC5)cc4)c4[nH]ncc4n3)c2)cc1 [Example #180, 5-(3-(((4-methylbenzyl)amino)methyl)phenyl)-N-(4-(4-methylpiperazin-1-yl)phenyl)-1H-pyrazolo[4,3-d]pyrimidin-7-amine]
Ki: 10 to 100 nM

CN(C)CCCOc1cccc(-c2nc(Nc3ccc(N4CCN(C)CC4)cc3)c3[nH]ncc3n2)c1 [Example #181, 5-(3-(3-(dimethylamino)propoxy)phenyl)-N-(4-(4-methylpiperazin-1-yl)phenyl)-1H-pyrazolo[4,3-d]pyrimidin-7-amine]
Ki: 10 to 100 nM

CC(=O)N1CCN(c2ccc(Nc3nc(-c4cccc(-c5nn[nH]n5)c4)nc4cn[nH]c34)cc2)CC1 [Example #192, 1-(4-(4-((5-(3-(2H-tetrazol-5-yl)phenyl)-1H-pyrazolo[4,3-d]pyrimidin-7-yl)amino)phenyl)piperazin-1-yl)ethan-1-one]
Ki: < 10 nM

COC(=O)c1cccc(-c2nc(Nc3ccc4c(c3)NC(=O)CC4)c3[nH]ncc3n2)c1 [Example #210, methyl 3-(7-((2-oxo-1,2,3,4-tetrahydroquinolin-7-yl)amino)-1H-pyrazolo[4,3-d]pyrimidin-5-yl)benzoate]
Ki: 10 to 100 nM

COC(=O)c1cccc(-c2nc(Nc3ccc4c(c3)NC(=O)CO4)c3[nH]ncc3n2)c1 [Example #211, methyl 3-(7-((3-oxo-3,4-dihydro-2H-benzo[b][1,4]oxazin-6-yl)amino)-1H-pyrazolo[4,3-d]pyrimidin-5-yl)benzoate]
Ki: 10 to 100 nM

O=C1COc2ccc(Nc3nc(-c4cccc(C(=O)O)c4)nc4cn[nH]c34)cc2N1 [Example #212, 3-(7-((3-oxo-3,4-dihydro-2H-benzo[b][1,4]oxazin-6-yl)amino)-1H-pyrazolo[4,3-d]pyrimidin-5-yl)benzoic acid]
Ki: 10 to 100 nM

COC(=O)c1ccc(-c2nc(Nc3ccc(N4CCN(C)CC4)cc3)c3[nH]ncc3n2)cc1 [Example #213, methyl 4-(7-((4-(4-methylpiperazin-1-yl)phenyl)amino)-1H-pyrazolo[4,3-d]pyrimidin-5-yl)benzoate]
Ki: < 10 nM

COC(=O)c1ccc(-c2nc(Nc3ccc4c(c3)NC(=O)CC4)c3[nH]ncc3n2)cc1 [Example #215, methyl 4-(7-((2-oxo-1,2,3,4-tetrahydroquinolin-7-yl)amino)-1H-pyrazolo[4,3-d]pyrimidin-5-yl)benzoate]
Ki: 100 to 1000 nM

COC(=O)c1cccc(-c2nc(Nc3ccc4c(c3)NC(=O)CS4)c3[nH]ncc3n2)c1 [Example #216, methyl 3-(7-((3-oxo-3,4-dihydro-2H-benzo[b][1,4]thiazin-6-yl)amino)-1H-pyrazolo[4,3-d]pyrimidin-5-yl)benzoate]
Ki: 10 to 100 nM

COC(=O)c1cccc(-c2nc(Nc3ccc4c(c3)NC(=O)CCC4)c3[nH]ncc3n2)c1 [Example #217, methyl 3-(7-((2-oxo-2,3,4,5-tetrahydro-1H-benzo[b]azepin-8-yl)amino)-1H-pyrazolo[4,3-d]pyrimidin-5-yl)benzoate]
Ki: 100 to 1000 nM

COc1ccc(Nc2nc(-c3cccc(S(F)(F)(F)(F)F)c3)nc3cn[nH]c23)cc1OC [Example #219, N-(3,4-dimethoxyphenyl)-5-(3-(pentafluorosulfanyl)phenyl)-1H-pyrazolo[4,3-d]pyrimidin-7-amine]
Ki: 100 to 1000 nM

FS(F)(F)(F)(F)c1cccc(-c2nc(Nc3ccc(N4CCOCC4)cc3)c3[nH]ncc3n2)c1 [Example #220, 5-(3-(pentafluorosulfanyl)phenyl)-N-(4-morpholinophenyl)-1H-pyrazolo[4,3-d]pyrimidin-7-amine]
Ki: 10 to 100 nM

CN1CCN(c2ccc(Nc3nc(-c4cccc(S(F)(F)(F)(F)F)c4)nc4cn[nH]c34)cc2)CC1 [Example #221, N-(4-(4-methylpiperazin-1-yl)phenyl)-5-(3-(pentafluorosulfanyl)phenyl)-1H-pyrazolo[4,3-d]pyrimidin-7-amine]
Ki: 10 to 100 nM

O=C1CCc2ccc(Nc3nc(-c4cccc(S(F)(F)(F)(F)F)c4)nc4cn[nH]c34)cc2N1 [Example #222, 7-((5-(3-(pentafluorosulfanyl)phenyl)-1H-pyrazolo[4,3-d]pyrimidin-7-yl)amino)-3,4-dihydroquinolin-2(1H)-one]
Ki: 100 to 1000 nM

COc1ccc(Nc2nc(-c3cccc(SC)c3)nc3cn[nH]c23)cc1OC [Example #223, N-(3,4-dimethoxyphenyl)-5-(3-(methylthio)phenyl)-1H-pyrazolo[4,3-d]pyrimidin-7-amine]
Ki: 10 to 100 nM
